Results: ChEMBL document CHEMBL2074004, “P-glycoprotein-dependent disposition kinetics of tacrolimus: studies in mdr1a knockout mice” (Pharm Res, 1999)

Key:
[1] = target: T1, ATP-dependent translocase ABCB1 (Mus musculus, UniProt P21447); test: TP_TRANSPORTER: increase in brain concentration in mdr1a(-/-) mouse; format: functional, organism-based; settings: in vivo
[2] = target: T1, ATP-dependent translocase ABCB1; test: TP_TRANSPORTER: increase in blood concentration in mdr1a(-/-) mouse; format: functional, organism-based; settings: in vivo

T1 sequence (P21447 whole entry): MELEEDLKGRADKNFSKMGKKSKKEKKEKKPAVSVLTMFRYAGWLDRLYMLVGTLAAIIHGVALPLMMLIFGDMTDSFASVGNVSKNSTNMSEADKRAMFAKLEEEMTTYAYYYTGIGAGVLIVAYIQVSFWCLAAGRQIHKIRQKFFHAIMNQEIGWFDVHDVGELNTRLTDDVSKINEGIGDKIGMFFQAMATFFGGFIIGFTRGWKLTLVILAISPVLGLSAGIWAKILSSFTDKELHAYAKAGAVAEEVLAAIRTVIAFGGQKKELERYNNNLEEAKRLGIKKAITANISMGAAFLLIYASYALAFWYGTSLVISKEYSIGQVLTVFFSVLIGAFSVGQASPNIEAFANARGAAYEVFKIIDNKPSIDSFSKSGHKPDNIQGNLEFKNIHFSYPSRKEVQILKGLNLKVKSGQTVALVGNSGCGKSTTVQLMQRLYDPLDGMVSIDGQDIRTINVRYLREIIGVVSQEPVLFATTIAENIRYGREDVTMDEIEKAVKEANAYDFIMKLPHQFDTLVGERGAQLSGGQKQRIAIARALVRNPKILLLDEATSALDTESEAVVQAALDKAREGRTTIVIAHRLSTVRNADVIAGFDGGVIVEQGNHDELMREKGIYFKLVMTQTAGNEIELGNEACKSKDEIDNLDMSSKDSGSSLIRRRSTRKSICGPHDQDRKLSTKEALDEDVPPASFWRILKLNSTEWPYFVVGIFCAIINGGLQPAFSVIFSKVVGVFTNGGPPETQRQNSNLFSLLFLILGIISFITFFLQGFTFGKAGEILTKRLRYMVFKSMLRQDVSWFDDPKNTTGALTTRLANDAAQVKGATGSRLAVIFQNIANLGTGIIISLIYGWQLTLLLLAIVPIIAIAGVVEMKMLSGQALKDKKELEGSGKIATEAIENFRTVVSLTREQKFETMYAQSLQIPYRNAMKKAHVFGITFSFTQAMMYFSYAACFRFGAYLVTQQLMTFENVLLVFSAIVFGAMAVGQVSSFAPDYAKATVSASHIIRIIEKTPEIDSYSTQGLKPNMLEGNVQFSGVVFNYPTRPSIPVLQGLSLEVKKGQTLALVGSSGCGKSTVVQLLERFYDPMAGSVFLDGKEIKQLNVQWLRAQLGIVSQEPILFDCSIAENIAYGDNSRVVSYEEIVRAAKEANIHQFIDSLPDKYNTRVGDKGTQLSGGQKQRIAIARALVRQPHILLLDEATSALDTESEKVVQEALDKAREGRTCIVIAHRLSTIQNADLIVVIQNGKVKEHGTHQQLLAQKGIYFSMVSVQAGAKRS

- Activity [1]: substrate [+]
- Activity [2]: substrate [+]
Compound: C=CC[C@@H]1/C=C(\C)C[C@H](C)C[C@H](OC)[C@H]2O[C@@](O)(C(=O)C(=O)N3CCCC[C@H]3C(=O)O[C@H](/C(C)=C/[C@@H]3CC[C@@H](O)[C@H](OC)C3)[C@H](C)[C@@H](O)CC1=O)[C@H](C)C[C@@H]2OC [TACROLIMUS ANHYDROUS]
